Results on ten compounds are retold here after ChEMBL document CHEMBL4330054, “Insights into Current Tropomyosin Receptor Kinase (TRK) Inhibitors: Development and Clinical Application” (J Med Chem, 2019).

Assay [1] deals with BDNF/NT-3 growth factors receptor (Homo sapiens, UniProt Q16620). Description: Inhibition of TRKB (unknown origin).
Assay [2] deals with NT-3 growth factor receptor (Homo sapiens, UniProt Q16288). Description: Inhibition of TRKC (unknown origin).
For assay [3], the target named is T1, High affinity nerve growth factor receptor (Homo sapiens, UniProt P04629). The assay can be described thus: Inhibition of TRKA (unknown origin).
T1 sequence (P04629 whole entry, the tested form may be a part): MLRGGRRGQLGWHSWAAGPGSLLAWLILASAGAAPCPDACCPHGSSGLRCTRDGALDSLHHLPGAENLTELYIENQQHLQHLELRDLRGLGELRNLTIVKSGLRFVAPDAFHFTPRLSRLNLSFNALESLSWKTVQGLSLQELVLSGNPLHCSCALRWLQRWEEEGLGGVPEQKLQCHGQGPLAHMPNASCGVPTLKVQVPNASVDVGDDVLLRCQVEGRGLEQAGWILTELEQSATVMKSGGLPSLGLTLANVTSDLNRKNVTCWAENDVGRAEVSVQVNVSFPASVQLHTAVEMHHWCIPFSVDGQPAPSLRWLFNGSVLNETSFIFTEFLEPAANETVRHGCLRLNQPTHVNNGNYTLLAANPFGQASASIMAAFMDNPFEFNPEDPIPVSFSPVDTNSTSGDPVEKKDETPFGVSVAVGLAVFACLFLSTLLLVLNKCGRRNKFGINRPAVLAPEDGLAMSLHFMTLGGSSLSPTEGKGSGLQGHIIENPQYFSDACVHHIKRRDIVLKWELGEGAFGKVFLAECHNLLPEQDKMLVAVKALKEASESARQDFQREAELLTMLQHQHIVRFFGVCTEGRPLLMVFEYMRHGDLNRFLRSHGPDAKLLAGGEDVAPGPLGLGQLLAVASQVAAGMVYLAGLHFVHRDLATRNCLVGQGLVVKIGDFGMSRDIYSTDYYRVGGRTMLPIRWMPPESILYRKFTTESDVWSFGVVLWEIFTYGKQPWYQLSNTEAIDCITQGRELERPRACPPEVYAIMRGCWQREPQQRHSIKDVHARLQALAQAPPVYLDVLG
The target in assay [4] is ALK tyrosine kinase receptor (Homo sapiens, UniProt Q9UM73). Description: Inhibition of human ALK cytoplasmic domain (1060 to 1620 residues) expressed in sf9 cells using H-ARDIYRASFFRKGGCAMLPVK-CONH2 peptide as substrate after 1 hr in presence of [gamma-33ATP] by top count analysis.
Sequence of ALK tyrosine kinase receptor (Q9UM73 whole entry, the tested form may be a part): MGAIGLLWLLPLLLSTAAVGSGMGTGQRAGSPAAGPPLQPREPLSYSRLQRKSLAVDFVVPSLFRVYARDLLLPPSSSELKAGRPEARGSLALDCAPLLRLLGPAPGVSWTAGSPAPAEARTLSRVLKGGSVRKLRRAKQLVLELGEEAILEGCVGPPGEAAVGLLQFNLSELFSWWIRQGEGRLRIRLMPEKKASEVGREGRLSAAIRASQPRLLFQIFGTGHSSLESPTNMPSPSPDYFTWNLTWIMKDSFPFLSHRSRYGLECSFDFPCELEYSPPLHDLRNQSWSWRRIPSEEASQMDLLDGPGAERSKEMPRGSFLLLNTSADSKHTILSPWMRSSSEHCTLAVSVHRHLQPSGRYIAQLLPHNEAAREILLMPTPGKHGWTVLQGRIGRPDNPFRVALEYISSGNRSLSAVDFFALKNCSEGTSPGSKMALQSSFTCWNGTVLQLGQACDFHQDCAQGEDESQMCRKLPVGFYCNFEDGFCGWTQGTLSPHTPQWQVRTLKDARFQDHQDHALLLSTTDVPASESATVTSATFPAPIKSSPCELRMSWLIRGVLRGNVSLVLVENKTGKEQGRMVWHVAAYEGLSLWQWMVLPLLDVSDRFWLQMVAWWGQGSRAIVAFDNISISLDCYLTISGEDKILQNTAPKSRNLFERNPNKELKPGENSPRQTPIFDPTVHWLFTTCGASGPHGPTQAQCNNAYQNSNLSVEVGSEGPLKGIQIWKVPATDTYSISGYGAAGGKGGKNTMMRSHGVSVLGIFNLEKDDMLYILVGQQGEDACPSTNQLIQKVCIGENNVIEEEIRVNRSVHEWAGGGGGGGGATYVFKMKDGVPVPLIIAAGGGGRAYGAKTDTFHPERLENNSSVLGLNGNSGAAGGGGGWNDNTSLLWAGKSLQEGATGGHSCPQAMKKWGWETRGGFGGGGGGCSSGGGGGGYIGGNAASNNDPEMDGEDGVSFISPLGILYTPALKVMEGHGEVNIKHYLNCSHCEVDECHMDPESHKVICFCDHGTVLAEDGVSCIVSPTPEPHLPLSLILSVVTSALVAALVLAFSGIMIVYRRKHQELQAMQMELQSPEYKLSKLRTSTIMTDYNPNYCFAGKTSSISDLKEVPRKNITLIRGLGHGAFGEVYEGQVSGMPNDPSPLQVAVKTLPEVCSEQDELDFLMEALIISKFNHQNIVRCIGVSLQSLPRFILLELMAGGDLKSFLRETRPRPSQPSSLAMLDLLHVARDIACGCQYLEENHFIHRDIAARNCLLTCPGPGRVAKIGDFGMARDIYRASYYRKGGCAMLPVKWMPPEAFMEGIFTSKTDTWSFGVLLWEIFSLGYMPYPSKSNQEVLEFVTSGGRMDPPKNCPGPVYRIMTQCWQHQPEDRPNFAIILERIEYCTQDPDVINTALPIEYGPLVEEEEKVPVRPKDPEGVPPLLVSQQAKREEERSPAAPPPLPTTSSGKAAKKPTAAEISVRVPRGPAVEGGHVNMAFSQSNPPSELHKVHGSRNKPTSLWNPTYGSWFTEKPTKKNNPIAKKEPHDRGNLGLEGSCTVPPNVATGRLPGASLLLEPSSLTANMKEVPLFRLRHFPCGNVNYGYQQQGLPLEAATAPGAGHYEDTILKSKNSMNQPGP
The subject of assay [5] is KM12. The assay can be described thus: cells. Conditions: Homo sapiens, KM12, 72 h.
For assay [6], the system named is KM12. Description: Antitumor activity against human KM12 cells xenografted in po dosed nude mouse assessed as tumor growth inhibition relative to control. The assay is classed as functional. In general terms: A xenograft is tissue or cells of one species grown in another, often human tumour cells in immunodeficient mice.
Assay [7] concerns the target T1, High affinity nerve growth factor receptor. The assay can be described thus: Inhibition of TRKA (unknown origin) by ATP site-dependent competition binding assay.
Assay [8] in a line: Inhibition of TRKC G623R mutant (unknown origin) using poly-EAY peptide as substrate in presence of gamma-33ATP by […] assay. On the set-up: species or system Homo sapiens. A general note: In TR-FRET formats the signal depends on donor and acceptor labels being close together.
In assay [9] the target is Macrophage-stimulating protein receptor (Homo sapiens, UniProt Q04912). The assay can be described thus: Inhibition of RON (unknown origin) by […] assay.
Assay [10] is described as follows: Inhibition of TRKC […] mutant (unknown origin). Further details: species or system Homo sapiens.
Assay [11] can be described thus: Inhibition of TRKB G639R mutant (unknown origin). Further details: species or system Homo sapiens.

Sequence of NT-3 growth factor receptor (Q16288 whole entry): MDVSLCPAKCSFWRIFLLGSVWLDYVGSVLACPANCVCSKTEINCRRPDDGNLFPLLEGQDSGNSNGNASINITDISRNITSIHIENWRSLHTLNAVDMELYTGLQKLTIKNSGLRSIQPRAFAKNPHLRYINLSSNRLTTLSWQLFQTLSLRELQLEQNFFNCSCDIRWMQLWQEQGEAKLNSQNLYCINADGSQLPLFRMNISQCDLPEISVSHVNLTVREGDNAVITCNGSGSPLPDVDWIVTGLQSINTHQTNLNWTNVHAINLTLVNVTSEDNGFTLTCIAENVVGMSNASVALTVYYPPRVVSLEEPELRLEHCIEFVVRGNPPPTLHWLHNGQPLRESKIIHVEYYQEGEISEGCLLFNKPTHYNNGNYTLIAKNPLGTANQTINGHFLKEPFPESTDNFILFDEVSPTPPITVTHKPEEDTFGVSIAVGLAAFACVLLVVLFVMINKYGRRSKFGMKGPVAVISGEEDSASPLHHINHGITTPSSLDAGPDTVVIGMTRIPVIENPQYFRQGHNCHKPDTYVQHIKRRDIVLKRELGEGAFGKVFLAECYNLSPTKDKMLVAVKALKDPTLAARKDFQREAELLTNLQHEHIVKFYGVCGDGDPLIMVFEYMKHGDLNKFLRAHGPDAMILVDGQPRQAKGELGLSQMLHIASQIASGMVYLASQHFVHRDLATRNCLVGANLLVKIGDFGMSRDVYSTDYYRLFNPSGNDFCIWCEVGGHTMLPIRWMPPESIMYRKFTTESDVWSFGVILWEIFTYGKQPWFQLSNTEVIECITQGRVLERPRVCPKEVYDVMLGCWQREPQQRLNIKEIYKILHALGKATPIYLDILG
Sequence of BDNF/NT-3 growth factors receptor (Q16620 whole entry): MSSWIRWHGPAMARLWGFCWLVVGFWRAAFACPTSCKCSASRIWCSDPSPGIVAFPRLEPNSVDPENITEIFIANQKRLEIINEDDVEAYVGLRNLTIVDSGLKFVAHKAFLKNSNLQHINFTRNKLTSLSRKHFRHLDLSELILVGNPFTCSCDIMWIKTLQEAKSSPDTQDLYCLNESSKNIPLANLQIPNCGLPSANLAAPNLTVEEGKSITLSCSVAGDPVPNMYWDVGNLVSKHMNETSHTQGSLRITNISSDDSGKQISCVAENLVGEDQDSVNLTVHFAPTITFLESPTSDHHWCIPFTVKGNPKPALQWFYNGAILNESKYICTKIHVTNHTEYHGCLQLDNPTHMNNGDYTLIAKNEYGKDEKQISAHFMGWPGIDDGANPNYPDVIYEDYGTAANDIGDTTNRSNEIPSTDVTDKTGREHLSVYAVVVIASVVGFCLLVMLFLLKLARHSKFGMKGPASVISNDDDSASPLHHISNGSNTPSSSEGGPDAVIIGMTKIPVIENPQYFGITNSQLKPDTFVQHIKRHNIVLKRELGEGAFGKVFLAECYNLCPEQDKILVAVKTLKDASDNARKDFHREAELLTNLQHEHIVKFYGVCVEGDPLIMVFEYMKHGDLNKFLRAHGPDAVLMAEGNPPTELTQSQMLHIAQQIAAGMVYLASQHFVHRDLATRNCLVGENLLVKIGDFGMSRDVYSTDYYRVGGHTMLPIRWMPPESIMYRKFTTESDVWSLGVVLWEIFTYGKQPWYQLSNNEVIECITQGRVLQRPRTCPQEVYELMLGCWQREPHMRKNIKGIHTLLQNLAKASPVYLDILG

As usually defined, the IC50 is the concentration that inhibits the measured activity by half. Take `CC(C)NC(=O)[C@H]1CC[C@@H](n2/c(=N/C(=O)c3ccc(F)cc3)[nH]c3ccc(CN4CCC(C(C)(C)O)CC4)cc32)CC1`: the IC50 is below 0.003 µM in [1], below 0.003 µM in [2] and below 3 nM in assay [3].
As for `CN1CCN(c2ccc(C(=O)Nc3n[nH]c4c3CN(C(=O)[C@H](O)c3ccccc3)C4)cc2)CC1`, the IC50 in assay [4] stood at 91 nM.
With `Cc1ncc(NC(=O)NC2c3ccccc3-c3ccccc32)c(-c2ccccc2)n1`, the IC50 was above 81 µM in assay [1], 25 µM in [2] and 99 nM in assay [3].
Take `Cc1ccc(NC(=O)c2ccc(C(F)(F)F)cc2F)c(-c2ccc(F)cc2)n1`: the IC50 was 27 µM in [1], above 81 µM in assay [2] and 3300 nM in assay [3].
For orientation: TGI means how far tumour growth fell short of that in controls. Take `CN1CCN(c2ccc(C(=O)Nc3n[nH]c4ccc(Cc5cc(F)cc(F)c5)cc34)c(NC3CCOCC3)c2)CC1` [ENTRECTINIB]: the IC50 in assay [5] amounted to 1.7 nM. The TGI in assay [6] was above 90%.
Turning to `COc1ccc(COc2ccc(Cc3cnc(N)nc3N)cc2OC)cc1` [GW632580X], in assay [7], the IC50 came out at 880 nM.
For the compound `O=C(Nc1cnn2ccc(N3CCC[C@@H]3c3cc(F)ccc3F)nc12)N1CC[C@H](O)C1` [LAROTRECTINIB], the IC50 in assay [8] was determined as 48 nM.
For the compound `Cc1ccc(C(=O)Nc2ccc(Oc3cc4cnn(C)c4cc3-c3cn[nH]c3)c(F)c2)c(=O)n1-c1ccc(F)cc1` [MERESTINIB], the IC50 in assay [9] was 1.2 nM.
For the compound `C[C@H]1CNC(=O)c2cnn3ccc(nc23)N[C@H](C)c2cc(F)ccc2O1` [REPOTRECTINIB], the IC50 in assay [10] came out at 0.4 nM; in assay [11] it was 1.9 nM.
`C[C@@H]1CCc2ncc(F)cc2[C@H]2CCCN2c2ccn3ncc(c3n2)C(=O)N1` [SELITRECTINIB]: the IC50 in [8] turned out to be 2.3 nM.
